# Reference: patent US20250154180A1, “CRK-LIKE (CRKL) ADAPTOR PROTEIN INHIBITORS AND METHODS OF MAKING AND USING THE SAME” (Rutgers, The State University of New Jersey, priority 2022, published 2025)
# pIC50: −log10 of the molar value.
# Tests used:
# [1] = test system: CrkL phosphorylation by Ab1; experiment: in vitro kinase assay (CrkL phosphorylation by Ab1, western blot); format: biochemical; conditions: 40 μM candidate drug; compared to Gleevec positive control
# Experimental: The expression of both CrkL and phosphor-CrkL in the negative control was arbitrarily set as “1”, and other treatments were relatively compared with the negative control. The pCrkL and CrkL were set as the phosphorylation ratio, while the kinase inhibition efficiency was set as (1−pCrkL/CrkL)×100%.
# in vitro Kinase Assay—An in vitro kinase assay was conducted to detect CrkL phosphorylation by Ab1 and to determine whether candidate drugs identified in the AlphaScreen assays could inhibit phosphorylation. […] The pTyr207 antibody detected the level of phosphorylated CrkL. […]
# To further verify the pCrkL inhibitor, a kinase assay was designed to evaluate the specificity of positive hits. […] The decreased amount of pCrkL can be detected and quantified by this kinase assay. […]
# In total, ten candidate drugs (five that bind to Ab1 and five that bind to CrkL) were verified by the in vitro kinase inhibition assay followed by thermal shift analysis. […] For phosphorylated CrkL detection, only the phosphorylation of Tyr207 was specifically detected by the anti-CrkL phosphorylation antibodies (FIG. 3B). […]
# [2] = test system: breast cancer cells (MCF7, MDA-MB-453, MDA-MB-231, MDA-MB-231-GFP-LUC, Hs578t, MDA-MB-468); experiment: MTT assay, breast cancer cell lines (TNBC and non-TNBC); format: cell-based; conditions: 72 h, three days after treatment
# Experimental: Peripheral blood mononuclear cells (PBMCs, line with the symbol □) were used to determine the specificities of the cytotoxic effects of Pomiferin. The survival curve of PBMC-average is from four different healthy donors. Cells (1×10^3−3×10^3) were plated in 96-well plates, and cell growth was determined by MTT assay three days after cells were treated with Pomiferin at the indicated doses.
# MTT assay—The MTT assay was used to detect cell proliferation. Briefly, cells were plated in a 96-well plate at a density of 50,000 cells/well in 200 μl of culture medium with candidate drugs to be tested (DMSO as a negative control). The treated cells were incubated for four hours a 37° C. with a 5% CO2 incubator to allow dark crystals to form at the bottom of the wells. After culturing for 48 hours, […] of MTT reagent was added to each well and mixed gently for one minute. After aspirating the culture medium from each well, 100 μl of crystal dissolving solution was added to each well and incubated for 10 minutes at RT. The signal was quantified by measuring the absorbance in each sample at 570 nm using a microplate reader.
# [3] = test system: IL-2 production from human PBMCs; experiment: IL-2 ELISA, PBMCs; format: cell-based
# Experimental: IL-2 ELISA—IL-2 in vitro enzyme-linked immunosorbent assay (ELISA) was used to measure human IL-2 productions. This assay was conducted per the user manual from the kit. In brief, human PBMCs were cultured in R10 medium with 0.5 μg/ml PHA. Then, 100 μl of the standard and sample was added to each well and incubated at 4° C. overnight. A prepared biotin antibody (100 μl) was added to each well and incubated for 1 hour at room temperature. Then, 100 μl prepared streptavidin solution was added and incubated for 45 minutes at room temperature. TMB one-step substrate reagent (100 μl) was then added to each well and incubated for 30 minutes at room temperature. Stop solution (50 μl) was then added to each well, and the results were quantified at 450 nm by Infinite M1000 Pro Plate Reader (Tecan, Switzerland) immediately.
# Previous studies have shown that phosphorylated CrkL inhibits immune cell functions. It was then evaluated whether a pCrkL inhibitor could restore immune cell functions. To test this, the production of IL-2 from human PBMCs treated with different concentrations of Pomiferin was quantitated. Phytohemagglutinin (PHA) was used to stimulate the secretion of IL-2 as a positive control group. […] Similar results were obtained from the third donor (FIG. 5B, lower panel).
# [4] = test system: 4T1 breast tumor; experiment: 4T1-Luc orthotopic syngeneic breast tumor model; format: in vivo, Balb/c mice; conditions: 5.0 μg/g oral gavage
# Description: Syngeneic orthotopic 4T1 breast tumor-bearing mouse model was established by inoculating 5×10^4 4T1-Luc cells mixed with Matrigel were into the left inguinal fat pad of Balb/c mice from Jackson Laboratories. This orthotopic syngeneic breast tumor model is a tool for preclinical testing of anti-cancer drugs or immunotherapy that require an intact immune system to elicit activity.
# To test the effects of the disclosed compounds on the xenograft mouse models, the HCC-Sk-Hep1 cell line xenograft model in NSG mice and 4T1-Luc orthotopic syngeneic breast tumor model in Balb/c mice was used. After confirming the palpable tumor in NSG or Balb/c mice. […] Compound III is referred to as “NC5-140-1” and Compound I is referred to as “NC5-140-2” in FIGS. 11A-11C.
compound,measurement,setting,value
"CC(C)=CCc1c2c(c3occ(-c4ccc(O)c(O)c4)c(=O)c3c1O)C=CC(C)(C)O2 [Pomiferin, 3′,4′,5-Trihydroxy-6″,6″-dimethyl-6-(3-methylbut-2-en-1-yl)-6″H-pyrano[2″,3″:7,8]isoflavone]",kinase inhibition effect (CrkL phosphorylation),[1],comparable results similar to the kinase inhibition effect seen with Gleevec
same,pIC50,[2],5.44 to 5.89
same,IL2 secretion,"[3]; PBMCs from three healthy donors, treated overnight",did not inhibit IL2 secretion
same,IL-2 production,"[3]; first donor, compared to DMSO",decreased IL-2 production
same,tumor growth,[4],steady growth inhibition
same,median survival,[4]; vehicle 25 days,38.5 days
